Structures can show the parent of a compound that is named as a salt.
Columns and labels:
[1] = target: T1, P2X7 receptor (Homo sapiens, UniProt Q99572); assay: P2X7 receptor antagonist test: bbATP-induced ethidium bromide fluorescence in THP-1 cells; format: cell-based; conditions: bbATP agonist, 37° C. for one hour, read-out: pIC50 (negative logarithm of the concentration of test compound necessary to reduce the bbATP agonist activity by 50%) (converted)
T1 construct: 200 μl of a suspension of THP-1 cells; endogenous in cells; host or cells: THP-1 cells
T1 sequence (Q99572 1-595): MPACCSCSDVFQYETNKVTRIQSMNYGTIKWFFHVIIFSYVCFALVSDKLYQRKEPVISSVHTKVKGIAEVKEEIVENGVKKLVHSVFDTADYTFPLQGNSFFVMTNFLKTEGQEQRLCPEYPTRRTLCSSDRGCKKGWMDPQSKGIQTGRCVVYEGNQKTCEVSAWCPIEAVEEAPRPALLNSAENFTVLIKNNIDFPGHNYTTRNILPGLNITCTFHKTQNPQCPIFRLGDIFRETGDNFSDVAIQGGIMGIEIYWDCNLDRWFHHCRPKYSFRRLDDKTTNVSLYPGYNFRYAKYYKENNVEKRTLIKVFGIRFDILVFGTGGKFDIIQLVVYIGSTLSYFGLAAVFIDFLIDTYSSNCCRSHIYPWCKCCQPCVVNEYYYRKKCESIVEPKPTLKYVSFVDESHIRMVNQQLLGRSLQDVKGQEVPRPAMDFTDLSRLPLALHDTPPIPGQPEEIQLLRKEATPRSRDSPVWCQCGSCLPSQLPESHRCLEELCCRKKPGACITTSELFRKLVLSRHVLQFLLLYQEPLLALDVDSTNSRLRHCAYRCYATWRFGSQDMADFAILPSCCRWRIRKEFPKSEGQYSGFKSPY
Description: Certain compounds such as benzoylbenzoyl adenosine triphosphate (bbATP) are known to be agonists of the P2X7 receptor, effecting the formation of pores in the plasma membrane (Drug Development Research (1996), 37(3) p. 126). Consequently, when the receptor is activated using bbATP in the presence of ethidium bromide (a fluorescent DNA probe), an increase in the fluorescence of intracellular DNA-bound ethidium bromide is observed. The increase in fluorescence can be used as a measure of P2X7 receptor activation and therefore to quantify the effect of a compound on the P2X7 receptor.
In this manner, each of the title compounds of the Examples was tested for antagonist activity at the P2X7 receptor. Thus, the test was performed in 96-well flat bottomed microtitre plates, the wells being filled with 250 μl of test solution comprising 200 μl of a suspension of THP-1 cells (2.5×10^6 cells/ml) containing 10^−4M ethidium bromide, 25 μl of a high potassium buffer solution containing 10^−5M bbATP, and 25 μl of the high potassium buffer solution containing 3×10^−5M test compound. The plate was covered with a plastics sheet and incubated at 37° C. for one hour. The plate was then read in a Perkin-Elmer fluorescent plate reader, excitation 520 nm, emission 595 nm, slit widths: Ex 15 nm, Em 20 nm. […]

Structure (SMILES) | melting point | IC50 [1] [nM]
NCCCc1cc(C(=O)NCC23CC4CC(CC(C4)C2)C3)c(Cl)cn1 (as salt: hydrochloride) [Example 6, N-(1-Adamantylmethyl)-2-(3-aminopropyl)-5-chloroisonicotinamide hydrochloride] | 150 °C (dec.) | 
CCNCCCc1cc(C(=O)NCC23CC4CC(CC(C4)C2)C3)c(Cl)cn1 (as salt: hydrochloride) [Example 7, N-(1-Adamantylmethyl)-5-chloro-2-[3-(ethylamino)propyl]isonicotinamide hydrochloride] | 206 to 208 °C (dec.) | 
C[C@H](CO)NCCCc1cc(C(=O)NCC23CC4CC(CC(C4)C2)C3)c(Cl)cn1 (as salt: hydrochloride) [Example 9, N-(1-Adamantylmethyl)-5-chloro-2-(3-{[(1R)-2-hydroxy-1-methylethyl]amino}propyl)isonicotinamide, dihydrochloride] | 205 to 208 °C | 
C[C@@H](CO)NCCCc1cc(C(=O)NCC23CC4CC(CC(C4)C2)C3)c(Cl)cn1 (as salt: hydrochloride) [Example 10, N-(1-Adamantylmethyl)-5-chloro-2-(3-{[(1S)-2-hydroxy-1-methylethyl]amino}propyl)isonicotinamide, dihydrochloride] | 205 to 208 °C | 
O=C(NCC12CC3CC(CC(C3)C1)C2)c1cc(CCCNCCO)ncc1Cl (as salt: hydrochloride) [Example 11, N-(1-Adamantylmethyl)5-chloro-2-{3-[(2-hydroxyethyl)amino]propyl}-isonicotinamide hydrochloride] | 204 to 205 °C (dec.) | 
O=C(NCC12CC3CC(CC(C3)C1)C2)c1cc(CCCNC[C@@H](O)CO)ncc1Cl (as salt: hydrochloride) [Example 16, N-(1-Adamantylmethyl)-5-chloro-2-(3-{[(2R)-2,3-dihydroxypropyl]amino}propyl)isonicotinamide, dihydrochloride] | 217 to 219 °C | 
CC(C)(O)CNCCCc1cc(C(=O)NCC23CC4CC(CC(C4)C2)C3)c(Cl)cn1 (as salt: hydrochloride) [Example 19, N-(1-Adamantylmethyl)-5-chloro-2-{3-[(2-hydroxy-2-methylpropyl)amino]propyl}isonicotinamide dihydrochloride] | 236 to 238 °C | 
CNCCNCCCc1cc(C(=O)NCC23CC4CC(CC(C4)C2)C3)c(Cl)cn1 (as salt: hydrochloride) [Example 21, N-(1-Adamantylmethyl)-5-chloro-2-(3-{[2-(methylamino)ethyl]amino}propyl)isonicotinamide dihydrochloride] | 216 to 219 °C | 
O=C(NCC12CC3CC(CC(C3)C1)C2)c1cc(CCCNCCNCCO)ncc1Cl (as salt: hydrochloride) [Example 23, N-(1-Adamantylmethyl)-5-chloro-2-[3-({2-[(2-hydroxyethyl)amino]ethyl}amino)propyl]isonicotinamide dihydrochloride] | 231 to 233 °C | 
O=C(NCC12CC3CC(CC(C3)C1)C2)c1cc(CCCNC(CO)CO)ncc1Cl (as salt: hydrochloride) [Example 25, N-(1-Adamantylmethyl)-5-chloro-2-(3-{[2-hydroxy-1-(hydroxymethyl)ethyl]amino}propyl)isonicotinamide dihydrochloride] | 201 to 203 °C | 
CN(CCO)CCCc1cc(C(=O)NCC23CC4CC(CC(C4)C2)C3)c(Cl)cn1 (as salt: hydrochloride) [Example 26, N-(1-Adamantylmethyl)-5chloro-2-{3-[(2-hydroxyethyl)(methyl)amino]propyl}isonicotinamide dihydrochloride] | 206 to 208 °C | 
C[C@@H](O)CNCCCc1cc(C(=O)NCC23CC4CC(CC(C4)C2)C3)c(Cl)cn1 (as salt: hydrochloride) [Example 28, N-(1-Adamantylmethyl)-5-chloro-2-(3-{[(2R)-2-hydroxypropyl]amino}propyl)isonicotinamide, dihydrochloride] | 224 to 226 °C | 
CNCCCNCc1cc(C(=O)NCC23CC4CC(CC(C4)C2)C3)c(Cl)cn1 (as salt: hydrochloride) [Example 29, N-(1-Adamantylmethyl)-5chloro-2-({[3-(methylamino)propyl]amino}methyl)isonicotinamide dihydrochloride] | 285 to 287 °C | 
O=C(NCC12CC3CC(CC(C3)C1)C2)c1cc(CNCCNCCO)ncc1Cl (as salt: hydrochloride) [Example 30, N-(1-Adamantylmethyl)-5-chloro-2-[({2-[(2-hydroxyethyl)amino]ethyl}amino)methyl]isonicotinamide dihydrochloride] | 289 to 292 °C | 
CNCCNCc1cc(C(=O)NCC23CC4CC(CC(C4)C2)C3)c(Cl)cn1 (as salt: hydrochloride) [Example 31, N-(1-Adamantylmethyl)-5-chloro-2-({[2-(methylamino)ethyl]amino}methyl)isonicotinamide dihydrochloride] | 259 to 262 °C | 
O=C(NCC12CC3CC(CC(C3)C1)C2)c1cc(CCNCCO)ncc1Cl (as salt: hydrochloride) [Example 32, N-(1-Adamantylmethyl)-5-chloro-2-{3-[(2-hydroxyethyl)amino]ethyl}isonicotinamide dihydrochloride] | 242 to 244 °C | 
O=C(NCC12CC3CC(CC(C3)C1)C2)c1cc(CCNCCCO)ncc1Cl (as salt: hydrochloride) [Example 33, N-(1-Adamantylmethyl)-5-chloro-2-{3-[(3-hydroxypropyl)amino]ethyl}isonicotinamide dihydrochloride] | 240 to 242 °C | 
CNCCCc1cc(C(=O)NCC23CC4CC(CC(C4)C2)C3)c(Cl)cn1 (as salt: hydrochloride) [Example 34, N-(1-Adamantylmethyl)-5-chloro2-[3-(methylamino)propyl]isonicotinamide hydrochloride] | 210 to 212 °C | 
CNCCCNCCCc1cc(C(=O)NCC23CC4CC(CC(C4)C2)C3)c(Cl)cn1 (as salt: trifluoroacetate) [Example 22, N-(1-Adamantylmethyl)-5-chloro-2-(3-{[3-(methylamino)propyl]amino}propyl)isonicotinamide bis(trifluoroacetate)] | 210 to 212 °C | 
O=C(NCC12CC3CC(CC(C3)C1)C2)c1cc(CCCNCCCO)ncc1Cl [Example 1, N-(1-Adamantylmethyl)-5-chloro-2-{3-[(3-hydroxypropyl)-amino]propyl}isonicotinamide] | 84 to 85 °C | 
O=C(NCC12CC3CC(CC(C3)C1)C2)c1cc(CCCNCCCO)cnc1Cl [Example 3, N-(1-Adamantylmethyl)-2-chloro-5-{3-[(3-hydroxypropyl)amino]propyl}nicotinamide] | 105 to 107 °C | 
O=C(NCC12CC3CC(CC(C3)C1)C2)c1cc(OCCNCCCO)ncc1Cl [Example 12, N-(1-Adamantylmethyl)-5-chloro-2-{2-[(3-hydroxypropyl)amino]ethoxy}isonicotinamide, hydrochloride] |  | 79.4
CN(CCO)CCCc1cc(C(=O)NCC23CC4CC(CC(C4)C2)C3)c(Cl)cn1 [Example 26, N-(1-Adamantylmethyl)-5chloro-2-{3-[(2-hydroxyethyl)(methyl)amino]propyl}isonicotinamide dihydrochloride] |  | 15.8

From US7129246B2, “N-adamantlmethyl derivatives and intermediates as pharmaceutical compositions and processes for their preparation” (AstraZeneca AB, priority 2001, dated 2006)
